Source: patent US20070081948A1, “Dry powder composition comprising a benzodiazepine for pulmonary inhalation” (Vectura Limited, priority 2003, published 2007)

Test: Emitted 6.8 micron particle fraction from vortex chamber versus ratio of chamber diameter to exit port diameter
Format: physicochemical
Settings: for Normalised average particle fraction <6.8 μm (%): emitted fraction divided by fraction of the loaded powder
Excerpt: The normalised average 6.8 micron particle fraction is the emitted 6.8 micron particle fraction divided by the 6.8 micron particle fraction of the powdered medicament loaded into the inhaler. The medicament used was pure Intal™ sodium cromoglycate (Fisons UK).

O=C(O)c1cc(=O)c2c(OCC(O)COc3cccc4oc(C(=O)O)cc(=O)c34)cccc2o1 [sodium cromoglycate]
Average particle fraction <6.8 μm (%) (Ratio D/De 2.0): 64.7%
Normalised average particle fraction <6.8 μm (%) (Ratio D/De 2.0): 73.1%
Average particle fraction <6.8 μm (%) (Ratio D/De 3.1): 70.8%
Normalised average particle fraction <6.8 μm (%) (Ratio D/De 3.1): 79.9%
Average particle fraction <6.8 μm (%) (Ratio D/De 4.0): 75.5%
Normalised average particle fraction <6.8 μm (%) (Ratio D/De 4.0): 85.2%
Average particle fraction <6.8 μm (%) (Ratio D/De 6.0): 81.0%
Normalised average particle fraction <6.8 μm (%) (Ratio D/De 6.0): 91.4%
Average particle fraction <6.8 μm (%) (Ratio D/De 7.1): 83.5%
Normalised average particle fraction <6.8 μm (%) (Ratio D/De 7.1): 94.3%
Average particle fraction <6.8 μm (%) (Ratio D/De 8.0): 83.2%
Normalised average particle fraction <6.8 μm (%) (Ratio D/De 8.0): 93.9%
Average particle fraction <6.8 μm (%) (Ratio D/De 8.6): 80.6%
Normalised average particle fraction <6.8 μm (%) (Ratio D/De 8.6): 91.0%
